According to patent US20180289709A1, “METHODS OF TREATING INFLAMMATION” (priority 2010, published 2018):
“Also recorded” adds a separate entry of the source. Where two headings read alike, the source gives them in different places.

Columns and labels:
BMDCs [1] = experiment: qPCR of antiviral and inflammatory gene mRNAs in TLR-stimulated BMDCs; settings: for transcription of mRNAs for antiviral cytokines (Ifnb1, Cxcl10): inhibitor 1 hour prior to stimulation
BMDCs [2] = experiment: Genome-wide mRNA profiles (microarray) of BMDCs treated with BI 2536 or DMSO before LPS or poly(I:C); assay type: cell-based, mouse; settings: for antiviral genes among genes repressed by BI 2536 compared to DMSO: at least 3-fold change
BMDCs [3] = experiment: IFN-β ELISA of BMDC culture supernatants; assay type: cell-based, mouse; settings: BMDC supernatant, LPS 6 h; 1 μM
Experimental: Cell culture supernatants were assayed using a sandwich ELISA kit for mouse IFN-β (PBL Biomedical Laboratories).

BMDCs [4] = experiment: BMDC viability (Alamar blue); assay type: cell-based, mouse; settings: treatment pre-stimulation
BMDCs [5] = experiment: Cell cycle analysis (propidium iodide DNA content, flow cytometry); assay type: cell-based, mouse; settings: propidium iodide DNA content after 0, 6, 12 h treatment
Experimental: Cells were fixed in ethanol, washed, and stained for 30 min at room temperature (RT) with propidium iodide (100 μg/mL) prepared in PBS (calcium- and magnesium-free) supplemented with RNAse A (2 mg/mL; Novagen) and triton X-100 (0.1%). Samples were analyzed for DNA content using an Accuri C6 flow cytometer (Accuri) and data was processed using the FlowJo software (Treestar).

IRF3 = IRF3 nuclear translocation by confocal microscopy, BMDCs on silicon nanowires; assay type: cell-based, mouse
Experimental: (§1) BMDCs were plated on top of etched silicon nanowires (Si NWs) coated with small molecules (Shalek et al., 2010). After 24 hours, cells were stimulated with LPS or poly(I:C), and then fixed in 4% formaldehyde in PBS (RT, 10 min). After fixation, each sample was permeabilized with 0.25% Triton-X 100 in PBS (RT, 10 min), incubated with Image-iT FX Signal Enhancer (RT, 30 min), and then blocked with 10% goat serum and 0.25% Triton-X 100 in PBS (RT, 1 hour). After washing, the samples were placed in 3% IgG-Free BSA & 0.25% Triton-X 100 in PBS that contained primary antibodies against either IRF3 or NF-κB P65 (1:175 dilution) and then rocked overnight at 4° C. The following day, the samples were washed with PBS and then incubated with an Alexa Fluor labeled secondary antibody (1:250 dilution) in 3% IgG-Free BSA & 0.25% Triton-X 100 in PBS (RT, 60 min). After washing with PBS, the samples were counterstained with 300 ng/mL of DAPI in PBS (RT, 30 min). For each experiment, every stimulus-molecule combination was prepared in triplicate. Once fixed, samples were imaged using an upright confocal microscope (Olympus). For each captured image, the nuclear fraction of the fluorescent protein was calculated after identifying nuclear boundaries using DAPI. Finally, distributions for this quantity across different conditions were compared using a one-way ANOVA analysis.

NF-κB p65 = NF-κB p65 nuclear translocation by confocal microscopy, BMDCs on silicon nanowires; assay type: cell-based, mouse; settings: nanowire-mediated delivery; LPS 30 min
Experimental: as §1

[6] = tested on: conventional DCs (GM-CSF-induced BMDCs); assay type: cell-based, mouse
VSV = assay type: in vivo, mouse; settings: mice, VSV intra-footpad, 6 hours post-infection
[7] = tested on: primary mouse lung fibroblasts (MLFs); settings: 1 μM
[8] = mouse, in vivo; cited from earlier work
[9] = humans (Mross et al., 2008); cited from earlier work
BMDCs [10] = experiment: SILAC-based phosphoproteomics of LPS-stimulated BMDCs pre-treated with BI 2536 versus DMSO
[11] = tested on: pDCs (Flt3L-induced BMDCs); experiment: qPCR and nCounter mRNA measurement in plasmacytoid DCs stimulated with CpG-A, CpG-B or EMCV; settings: 1 μM
[12] = BMDCs, LPS, increasing amounts of BI 2536, dose-dependent
[13] = DCs stimulated with LPS, poly(I:C) or Pam3CSK4, 1 μM

COc1cc2ncn(-c3cc(OCc4ccccc4C(F)(F)F)c(C(N)=O)s3)c2cc1OC [5-(5,6-Dimethoxy-1H-benzimidazol-1-yl)-3-[[2-(trifluoromethyl)phenyl]methoxy]-2-thiophenecarboxamide]
transcription of mRNAs for antiviral cytokines (Ifnb1, Cxcl10) (BMDCs [1]; BMDCs, LPS): abrogate

CC[C@@H]1C(=O)N(C)c2cnc(Nc3ccc(C(=O)NC4CCN(C)CC4)cc3OC)nc2N1C1CCCC1 [BI 2536]
antiviral genes among genes repressed by BI 2536 compared to DMSO (BMDCs [2]; LPS): 67/194 | unique LPS- and/or poly(I:C)-induced genes repressed (BMDCs [2]; downregulated 3-fold upon LPS or poly(I:C) stimulation): 311 genes | antiviral genes among genes repressed by BI 2536 compared to DMSO (BMDCs [2]; poly(I:C), P<1×10^−71, hypergeometric test): 99/193 | secreted IFN-β (ELISA) (BMDCs [3]): reduced; also recorded: strongly inhibits | viability of BMDCs (BMDCs [4]): neither impacted | cell cycle state of BMDCs (BMDCs [5]): neither impacted | IRF3 nuclear translocation (IRF3; nanowire-mediated delivery, poly(I:C) 2 h or LPS 45 min, dose-dependent): inhibited | IRF3 translocation, delivery in solution (IRF3; poly(I:C) 2 h, lesser extent than nanowire-mediated delivery): decreased | NF-κB p65 localization (NF-κB p65): did not affect | mRNA level of Cxcl1 [6]: neither affected | transcription of antiviral genes (Ifnb1 and Cxcl10) ([6]; 1 μM): inhibited | Ifna2 mRNA (type I IFN α2) in popliteal lymph nodes (VSV): inhibits | VSV replication in the lymph node (VSV RNA levels) (VSV): rapidly increased | antiviral cytokine mRNA (Ifnb1, Cxcl10) in popliteal lymph nodes (VSV; 500 μg i.v. and 50 μg footpad): strongly suppressed; also recorded: inhibits | drug-induced toxicity (cell viability, CellTiter-Glo) [7]: not due to drug-induced toxicity | interferon production (Ifnb1 mRNA) [7]: failed to produce interferon | tolerability [8]: good tolerability | tolerability [9]: good tolerability | Cxcl1 expression (qPCR) (BMDCs [1]; BMDCs, LPS, increasing amounts of BI 2536): not significantly affected | Cxcl10 mRNA level (qPCR) (BMDCs [1]; [12]): reduced | Ifnb1 mRNA level (qPCR) (BMDCs [1]; [12]): reduced | expression of 12 well-studied antiviral genes (qPCR) (BMDCs [1]; [13]): strongly inhibited | inflammatory gene expression (qPCR) (BMDCs [1]; [13]): remained largely unaffected | phosphorylation levels of Jun family cell cycle regulators (Jund) (BMDCs [10]; LPS): decreased | phosphorylation levels of mitotic kinases Nek6 and Nek7 (BMDCs [10]; LPS): decreased | phosphorylation levels of proteins in the TBK1/IKK-ε/IRF3 axis (BMDCs [10]; LPS): unchanged | distinct proteins from which the changed phosphopeptides derive (BMDCs [10]; LPS 30 or 120 min, 1 μM): 413 proteins | phosphopeptides with significant (P<0.001) change in level (BMDCs [10]; LPS 30 or 120 min, 1 μM): 510 phosphopeptides | CpG-B-specific signature genes (nCounter) ([11]; 6 h): a minor effect, if any | signature genes induced by CpG-A alone or by both CpG-A and -B (nCounter) ([11]; 6 h): repressed | transcription of mRNAs for Ifnb1, Ifna2 and Cxcl10 ([11]; CpG-A stimulation or EMCV infection (MOI 10)): nearly abrogated | Cxcl1 mRNA ([11]; CpG-B): moderately increasing | Cxcl10 mRNA ([11]; CpG-B): decreased

COc1ccc(Br)cc1/C=c1\sc2nc(=O)c(C)nn2c1=O [Poloxipan]
transcription of mRNAs for antiviral cytokines (Ifnb1, Cxcl10) (BMDCs [1]; BMDCs, LPS): abrogate
